Experimental data as given in a melting point compilation (Tetko et al.; mined from patent text by program, amines drawn as free bases though some values may be those of a salt).

Row | SMILES | melting point [°C]
1 | O=C1c2ccccc2C(=O)N1Cc1ccc(OCCCCc2ccccc2)cc1 | 106 to 108
2 | CC#CCOc1ccc(SC(C(=O)NO)c2ccc3ccccc3c2)cc1 (centres undefined) | 148
3 | Cc1cccc(NC(=O)NC2C(=O)Nc3ccccc3NC2=O)c1 | > 300
4 | ClCc1cn2ccccc2n1 | 93 to 94
5 | Cc1ccc(N2C(=O)c3nccnc3C2OC(=O)Oc2ccccc2)nc1 (centres undefined) | 176
6 | N#Cc1cc(-c2ccc(Cl)cc2)cnc1Cl | 185 to 187
7 | CCCCCCCCN(C)C(=O)CC(=O)N(C)CCCCCCCC | 41
8 | COc1ccc(C2=NCc3nnc(CN(C)C)n3-c3ccc(Cl)cc32)cc1 | 224 to 225
9 | Cc1nn(C)c2c1Nc1ccccc1NC2=O | 189 to 190
10 | Cc1cc(CN(Cc2cccs2)c2sc(-c3ccc(C(F)(F)F)cc3)nc2C)ccc1OC(C)(C)C(=O)O | 100
11 | COc1cc(Oc2ccc(S(C)(=O)=O)cc2)cc2cc(C3=NCC(CC(N)=O)S3)[nH]c12 (centres undefined) | 169 to 170
12 | Cc1ccc(N(Cc2cccnc2)S(C)(=O)=O)c(C)c1 | 62 to 65
13 | CS(=O)(=O)c1cc(CBr)ccc1Br | 120 to 124
14 | Cc1ccc(CCCOc2c(C)cc(-c3nnn(C)n3)cc2C)nn1 | 114 to 115
15 | CC(C)(C)c1ccccc1COc1ccc(N)cn1 | 147 to 149
16 | CS(=O)(=O)c1ccc(CN(C2CCOCC2)S(=O)(=O)c2ccc(Cl)cc2)cc1 | 158 to 160
17 | CCOC(=O)c1ccc(N2CCN(c3ccncc3)CC2)cc1 | 162 to 164
18 | CC(C)n1c(=O)nc(-c2cc3c(cc2Cl)OCO3)c2cc3c(cc21)OCO3 | 147 to 150
19 | Cc1ccccc1Oc1cccc(C=O)c1O | 56 to 58
20 | O=C(NCc1ccc(I)cc1Cl)C1CC1 | 158 to 160

Row | SMILES | melting point [°C]
21 | COC(=O)c1ccccc1-c1cc(-c2cccc(C(F)(F)F)c2)no1 | 46 to 48
22 | CCOC(=O)c1c(O)ccc(Cc2c[nH]cn2)c1C | 42 to 45
23 | CN1C(=O)CN=C(c2ccccc2F)c2cc(C#N)ccc21 | 177
24 | COC(=O)Nc1cccc(C(=O)OC)c1NCc1ccc(-c2ccccc2C#N)cc1 | 113 to 115
25 | Cc1nn(-c2cc(OS(C)(=O)=O)c(Cl)cc2F)c(C)c1C | 123 to 125
26 | COc1ccc(-c2nc3c(OC(C)=O)cccc3s2)cc1 | 122 to 124
27 | Cc1cc(-c2cc(C(F)(F)F)n3ncc(C(=O)Nc4cccc(S(=O)(=O)NC5CC5)c4)c3n2)ccc1C(F)(F)F | 201
28 | O=S(=O)(Cl)C(F)(F)C(F)(F)C(F)(F)C(F)(F)C(F)(F)C(F)(F)C(F)(F)C(F)(F)F | 36
29 | NCC1Cc2cccc(-c3ccsc3)c2O1 (centres undefined) | > 200
30 | COc1ccccc1Oc1ccc(Cl)cc1C(=O)O | 115 to 118
31 | COC(=O)c1ccc(C2=NOC(c3cc(Cl)cc(Cl)c3)(C(F)(F)F)C2)c2ccccc12 (centres undefined) | 137 to 138
32 | N#Cc1sc(N2CCCC2)nc1N | 305 to 308
33 | CCC(O)c1ccc(Cl)c2nc3n(c12)CCCN3c1ccc(Cl)cc1C(F)(F)F (centres undefined) | 220 to 222
34 | CCCCCCCC(c1cc(C)ccc1O)c1cc(C)ccc1O | 108 to 109
35 | CCc1ccc(-c2[nH]nc3c2C(=O)c2c(NC(C)=O)cccc2-3)cc1 | 294
36 | Cc1nc(-c2ccc(NC(=O)CCCC(=O)Nc3ccc(-c4noc(C)n4)cc3)cc2)no1 | 235 to 237
37 | CCOc1ccc(F)c2c1c(CCN(C)C)cn2CC | 59 to 60
38 | CCCn1c(=O)n(CCC)c2cc3c(N4CCN(C(=O)Nc5ccc(Oc6ccccc6)cc5)CC4)ncnc3cc21 | 179 to 180
39 | Cc1cccc2c1N(CC(=O)N1CC3CCC(CC3)C1)C(=O)C(NC(=O)Nc1cccc(O)c1)N=C2c1ccccc1F (centres undefined) | 193 to 204
40 | CCCCC1=NC2(CCCC2)C(=O)N1Cc1ccc(-c2ccccc2S(=O)(=O)Nc2noc(C)c2C)c(COCCF)c1 | 68 to 73

The next lines start with the values.

Row | melting point [°C] | SMILES
41 | 137 to 138 | CCOC(=O)C1=C(COCc2nccn2C)NC(C)=C(C(=O)OC)C1c1ccccc1Cl (centres undefined)
42 | 187 to 189 | CC12CCC(=O)N1CC(=O)N2 (centres undefined)
43 | 255 to 256 | CN(c1cc2c3c(c1)CCCC3CCC2)c1ncc(C(=O)O)cn1
44 | 66 to 67 | C=Cc1ccc2c(c1)c1ccccc1n2CC
45 | 171 to 175 | CNC(=O)c1ccccc1Nc1nc(Nc2cc3c(cc2OC)CCN(CCOC)CC3)ncc1Br
46 | 125 to 126 | CCn1nc(C(N)=O)cc1CC(C)C
47 | 108 | CC(=O)Oc1ccc(-c2cncnc2Cl)cc1OC(C)=O
48 | 64 | CC(C)C1NCC(=O)N1CC(N)=O (centres undefined)
49 | 201 to 202 | CSc1ccc(CC(=O)NC(NC(Cc2ccccc2C)=NC#N)C(C)(C)C)cc1 (centres undefined)
50 | 196 to 198 | CC(C)(CNS(=O)(=O)C(F)(F)F)Cn1c(=O)c2cccc3ncc(c1=O)n32
51 | 178 to 181 | COCCN1CCc2ccc(Nc3ncc(Cl)c(Nc4ccccc4C(=O)NCC(C)C)n3)cc2CC1
52 | 227 to 230 | Cc1ccc(Sc2cncc3sc(C=NOCC(=O)O)cc23)cc1
53 | 210 to 230 | CC1(C)Cc2c(CO)c(O)c3c(c2C(c2ccccc2)=N1)CC(C)(C)O3
54 | 64 to 67 | COc1ccc2c(C(C)=O)noc2c1
55 | 92 to 94 | COc1cc(OC)c(/C=C/C(=O)Nc2ccc(OC)c(N)c2)c(OC)c1
56 | 285 to 287 | CC1(N)CN(c2nc3c(cc2F)c(=O)c(C(=O)O)cn3C2CC2)C1
57 | 196 | CS(=O)(=O)C(=C1CN(C(c2ccccc2)c2ccccc2)C1)c1ccccc1O
58 | 121 to 123 | O=C(O)CCCCCCCCNS(=O)(=O)c1ccc(Cl)cc1
59 | 91 to 92 | Cc1ccc(C2c3c(C)c(N)c(C)c(C)c3OC2(C)C)cc1 (centres undefined)
60 | 308 | COc1cc2[nH]c(=O)c(=O)n(C)c2cc1OC

Row | melting point [°C] | SMILES
61 | > 245 | N#Cc1cnc2sc(-c3ccccc3)cc2c1-c1ccc2[nH]ccc2c1
62 | 126 | COCC(=O)N[C@H]1CC[C@H](CCN2CCN(c3nccc4c3OCC4)CC2)CC1
63 | 79 to 82 | CCCCOC(C(=O)O)c1ccc2c(c1)C(C)(C)CCC2(C)C (racemic)
64 | 205 to 208 | C[C@]1(COc2ccc3cc(N4CCC(Oc5ccc(OC(F)(F)F)cc5)CC4)ccc3c2)Cn2cc([N+](=O)[O-])nc2O1
65 | 154 | Cc1ccc(-c2cc(OCC(=O)N3CCSCC3)c3c(C(F)(F)F)cccc3n2)cc1
66 | 126 to 128 | CC(O)(c1nc2cc(S(=O)(=O)c3ccccc3)ccc2s1)C(F)(F)F (centres undefined)
67 | 157 to 159 | CS(=O)(=O)c1ccc(-c2cnn(Cc3ccccc3)c(=O)c2-c2ccc(Cl)cc2)cc1
68 | 93 to 95 | CN(C)CCCn1ccc(-c2ccc(F)cc2)c1-c1ccncc1
69 | 220 | N=C(N=C1NC(=O)C(=O)N1c1ccc(Cl)c(Cl)c1)Nc1ccc(Cl)c(Cl)c1
70 | 104 to 106 | CN(C)CCCN1c2ccccc2C(c2ccccc2Cl)=Nc2cccnc21
71 | 109 to 110 | O=C(c1ccc(F)cc1)N(CCCCn1ccnc1)C1=Nc2cccc3cccc1c23
72 | 142 to 144 | COc1ccc(C#N)cc1C=NO
73 | 142 to 144 | COc1ncc(C(F)(F)F)cc1-c1cccn2nc(Nc3ccc(C4CCN(C(=O)OC(C)(C)C)CC4)cc3)nc12
74 | 92 to 94 | OCC(O)Cc1nccn1CCCc1cccc(OCc2coc(/C=C/c3ccc(F)cc3F)n2)c1 (centres undefined)
75 | 147 to 148 | Cc1cnc(C2=NC(C)(C(C)C)C(=O)N2)c(C(O)c2ccc(C)s2)c1 (centres undefined)
76 | 124 to 125 | CC1=C2C(Br)CC3C4CCCC4(C)CCC3C2(C)CCC1=O (centres undefined)
77 | 130 | Cc1ccc(S(=O)(=O)O)cc1C=C1C(=O)C2(C)CCC1C2(C)C (centres undefined)
78 | 232 to 233 | CN1CCN(CCC(=O)N2c3ccccc3C(=O)Nc3cccnc32)CC1
79 | 103 to 105 | COc1ccc(-c2nc3c(C(=O)NC4CC5CCCC(C4)N5C)cccc3o2)cc1 (centres undefined)
80 | 114 | CC(C)(n1cncn1)C(O)(Cn1cncn1)c1ccc(Cl)cc1 (centres undefined)

Row | melting point [°C] | SMILES
81 | 125 | NCCCNc1ccc(Cl)nn1
82 | 220 | CC1CCC(C(=O)N(C)C)=C2NC=C(C(N)=O)C(=O)N21 (centres undefined)
83 | 143 to 145 | CC(=NOCCOc1ccc(CC2SC(=O)N(C(c3ccccc3)(c3ccccc3)c3ccccc3)C2=O)cc1)c1ccc(N(C)S(=O)(=O)c2ccccc2)cc1 (centres undefined)
84 | 115 to 117 | O=c1cc(NCCN2CCN(c3cc(Cl)cc4c3OCCO4)CC2)cn[nH]1
85 | 208 to 209 | Cc1c2c(nn1-c1ccccc1)c(Cl)nc1ccccc12
86 | 147 to 149 | CN1CCN(c2cc(Cl)cc3c2c(=O)n(Cc2ccccc2F)c(=O)n3Cc2ccccc2)CC1
87 | 90.5 | O=C(c1ccc(Cl)c([N+](=O)[O-])c1)c1ccc(F)cc1F
88 | 67 to 68 | CC(=O)OC1Oc2ccc(OS(=O)(=O)N(C)C)cc2C1(C)C (centres undefined)
89 | 140 | Cc1ccnc(N2CCN(CCc3c(C)n4c5c(cc(C(O)C(C)C)cc35)CCC4)CC2)c1 (centres undefined)
90 | 92 to 94 | CC(C)(C)n1nn[nH]c1=S
91 | 177 to 178 | O=C(O)c1cc(S(=O)(=O)N2CCCC(OCc3ccccc3)C2)ccc1Br (centres undefined)
92 | 186 | CC1(C)NC(=O)c2ccccc2N1CCCN1CCC(C(=O)c2ccc(F)cc2)CC1
93 | 75 | CCCCCC1(C#N)CCC(c2ccc(-c3ccc(CCC)cc3)cc2)CC1 (centres undefined)
94 | 130 to 135 | CC1CCN(Cc2cccc(OCCCNS(=O)(=O)CCNc3ccc(Cl)c(Cl)c3)c2)CC1
95 | 160 to 162 | COc1ccccc1-c1ccc(C(=O)O)cc1C
96 | 237 to 239 | CCc1c(C(=O)O)c(C(F)F)nc(C(F)(F)F)c1C(=O)O
97 | 178 to 180 | O=C(CCl)c1cc2c(s1)SCCc1cc(=O)n(-c3ccc(Cl)cc3)nc1-2
98 | 191 | COc1ccc(-n2cnnc2S(C)(=O)=O)cc1
99 | 127 to 128 | O=C(O)CCn1cccc1Cn1ccnc1
